Data reported in patent US6432984B1, “Pyrazolecarboxylic acid derivatives, their preparation, pharmaceutical compositions containing them” (Sanofi-Synthelabo, priority 1999, dated 2002).

How the values were obtained:
[1] = biological target: T1, CB1 receptors present in the brain (Mus musculus, UniProt P47746); experiment: duration of occupation of the CB1 receptors present in the brain, in vivo after oral administration; settings: mice, oral 10 mg/kg; for % of occupation of the receptors, 1 hour: 1 hour after administration; for % of occupation of the receptors, 24 hours: 24 hours after administration
T1 construct: from tissue; host or cells: mouse brain
T1 sequence (P47746 whole entry): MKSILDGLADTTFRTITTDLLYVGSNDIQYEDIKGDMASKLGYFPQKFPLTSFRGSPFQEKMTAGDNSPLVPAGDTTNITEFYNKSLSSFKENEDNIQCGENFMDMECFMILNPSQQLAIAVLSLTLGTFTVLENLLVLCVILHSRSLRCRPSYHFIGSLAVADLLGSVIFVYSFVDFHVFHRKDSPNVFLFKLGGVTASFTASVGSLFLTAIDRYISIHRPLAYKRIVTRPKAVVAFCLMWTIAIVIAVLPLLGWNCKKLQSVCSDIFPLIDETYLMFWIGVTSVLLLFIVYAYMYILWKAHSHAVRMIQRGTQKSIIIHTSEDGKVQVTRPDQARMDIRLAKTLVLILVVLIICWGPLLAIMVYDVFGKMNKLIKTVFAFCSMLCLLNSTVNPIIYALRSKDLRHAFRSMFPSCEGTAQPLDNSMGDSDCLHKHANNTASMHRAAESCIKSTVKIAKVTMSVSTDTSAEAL
Source text: Moreover, the duration of occupation of the CB1 receptors present in the brain by the 3 compounds below was compared: […]

[2] = system: hypothermia induced with a cannabinoid receptor agonist (WIN 55212-2); experiment: antagonism of the hypothermia induced with WIN 55212-2; type: in vivo; settings: mice; for ED50: Mus musculus, oral, WIN 55212-2 induced hypothermia; for Duration of action, 24 h, oral dose 1 mg/kg: oral dose 1 mg/kg
Source text: In this test, the activity and the duration of action of 3 compounds were compared.

[3] = biological target: T2, CB1 cannabinoid receptors (Homo sapiens, UniProt P21554); experiment: in vitro affinity for CB1 cannabinoid receptors (conditions of Devane et al.)
T2 sequence (P21554 whole entry): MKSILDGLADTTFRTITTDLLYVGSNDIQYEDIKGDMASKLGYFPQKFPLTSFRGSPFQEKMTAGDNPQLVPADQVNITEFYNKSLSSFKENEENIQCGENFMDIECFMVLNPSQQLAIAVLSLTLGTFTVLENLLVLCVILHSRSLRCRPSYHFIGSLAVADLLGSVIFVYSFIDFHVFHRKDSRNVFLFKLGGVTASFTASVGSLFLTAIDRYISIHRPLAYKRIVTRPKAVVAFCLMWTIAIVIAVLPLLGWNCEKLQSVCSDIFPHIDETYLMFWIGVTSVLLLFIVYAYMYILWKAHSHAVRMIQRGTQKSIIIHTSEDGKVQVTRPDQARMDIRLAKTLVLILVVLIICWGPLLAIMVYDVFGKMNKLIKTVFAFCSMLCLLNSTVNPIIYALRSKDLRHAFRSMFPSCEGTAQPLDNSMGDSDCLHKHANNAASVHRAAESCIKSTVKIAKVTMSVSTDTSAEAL

[4] = biological target: T2, CB1 cannabinoid receptors; experiment: models of adenylate-cyclase inhibition; type: biochemical; settings: as described in Rinaldi-Carmona et al. 1996
Source text: More particularly, the compound of the present invention, in its native form or in the form of one of its pharmaceutically acceptable salts, is a powerful and selective antagonist of the CB1 cannabinoid receptors.

SMILES	% of occupation of the receptors, 1 hour [1] [%]	% of occupation of the receptors, 24 hours [1] [%]	ED50 [2] [mg/kg]	Duration of action, 24 h, oral dose 1 mg/kg ([2]; 24 h after administration)	Duration of action, 24 h, oral dose 10 mg/kg ([2]; oral dose 10 mg/kg, 24 h after administration)	Ki [3] [nM]	% of occupation of the receptors, 24 hours ([1]; 10 mg/kg) [%]	% of occupation of the receptors, 24 hours ([1]; listed as compound of formula (I), 10 mg/kg) [%]	antagonist nature in models of adenylate-cyclase inhibition [4]
Cc1c(C(=O)NN2CCCCC2)nn(-c2ccc(Cl)cc2Cl)c1-c1ccc(Br)cc1 [Compound A, reference compound]	89	4	0.3	not active	active	8	–	–	–
CCc1c(C(=O)NN2CCCCC2)nn(-c2ccc(Cl)cc2Cl)c1-c1ccc(Br)cc1 [Compound of formula (I), N-piperidino-5-(4-bromophenyl)-1-(2,4-dichlorophenyl)-4-ethylpyrazole-3-carboxamide]	82	–	0.3	active	–	5.4	44	44	antagonist
